The data set concerns Bcl2 transcript in SiHa cells. The experiment in a line: Bcl2 transcript expression by RT-PCR after delivery of Bcl2 antisense oligonucleotide into SiHa cells. It is filed as cell-based, human. As to conditions: Bcl2 antisense oligonucleotide 100 nM, 24 hours, FIG. 8. Here is the method:
On the day prior to the experiment, SiHa cells were seeded on 24-well plates at a density of 8×10^4 cells/well. […] The antisense oligonucleotide to induce the inhibition of expression of the Bcl2 gene (Genbank accession number: […] These materials were slowly pipetted, mixed and allowed to stand at room temperature for 20 min, thus resulting in formation of complexes. The thus-prepared complexes were added to the well plates, followed by cell culture in a CO2 incubator at 37° C. for 24 hours. After 24 hours, total RNA was isolated from the cultured cells using a Trizol reagent (Invitrogen, Carlsbad, Calif., USA) and then reverse-transcribed into cDNA using AccuPower RT PreMix (Bioneer, Daejeon, Korea). […] An expression level of the Bcl2 transcript was assayed by determining quantitative changes of the gene expression through normalization of a band density of the Bcl2-specific PCR product against a band density occurring by amplification of the GAPDH (glyceraldehyde-3-phosphate dehydrogenase) gene.

Regarding “antisense oligonucleotide-alone: Bcl2 antisense oligonucleotide 5'-TCT CCC AGC GTG CGC CAT-3' (Bioneer), given without delivery system (antisense TCTCCCAGCGTGCGCCAT; chemistry not given here)”, the “amount of the Bcl2 transcript (RT-PCR, normalized against GAPDH)” value is “no changes in an amount of the Bcl2 transcript”.

(Values after patent US20120021044A1, “Novel Cationic Lipid, A Preparation Method of the Same and A Delivery System Comprising the Same” (SNU R&DB FOUNDATION, priority 2007, published 2012).)
